What was measured:
Experiment in all cases: Post-emergence test experiment (Table 3, 1000 g/ha)
Format in all cases: in vivo
Settings in all cases: post-emergence spray, after 3 weeks, fresh weight inhibition
[1] = tested on: Digitaria sanguinalis
Summary of the method: (§1)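 Activity graded levels 0-5 by fresh-weight inhibition (level 5 above 85%, level 0 below 5%), assessed 3 weeks after treatment. Plants grown in greenhouse pots were sprayed post-emergence at 2-3 leaves using acetone/tween-80 solutions with methyl oleate synergist (1.5 L/ha).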

[2] = tested on: Monochoria vaginalis
Summary of the method: as §1

[3] = tested on: Galium spurium
Summary of the method: as §1

[4] = tested on: Leptochloa chinensis
Summary of the method: as §1

[5] = tested on: Abutilon theophrasti
Summary of the method: as §1

[6] = tested on: Setaria viridis
Summary of the method: as §1

CC(Oc1nc(F)c(Cl)c(N)c1Cl)C(=O)Sc1ccc2ccccc2c1 (stereo not drawn) [Compound 114]
Activity level (growth inhibition rate) Digitaria sanguinalis [1]: 5 (Level 5: the growth inhibition rate is greater than 85%) | Activity level (growth inhibition rate) Monochoria Vaginalis [2]: 5 (Level 5: the growth inhibition rate is greater than 85%) | Activity level (growth inhibition rate) Galium spurium [3]: 5 (Level 5: the growth inhibition rate is greater than 85%) | Activity level (growth inhibition rate) Leptochloa chinensis [4]: 5 (Level 5: the growth inhibition rate is greater than 85%) | Activity level (growth inhibition rate) Abutilon theophrasti [5]: 5 (Level 5: the growth inhibition rate is greater than 85%) | Activity level (growth inhibition rate) Setaria viridis [6]: 5 (Level 5: the growth inhibition rate is greater than 85%)

CC(Oc1nc(F)c(Cl)c(N)c1Cl)C(=O)Sc1cccnc1 (stereo not drawn) [Compound 115]
Activity level (growth inhibition rate) Digitaria sanguinalis [1]: 5 (Level 5: the growth inhibition rate is greater than 85%) | Activity level (growth inhibition rate) Monochoria Vaginalis [2]: 5 (Level 5: the growth inhibition rate is greater than 85%) | Activity level (growth inhibition rate) Galium spurium [3]: 5 (Level 5: the growth inhibition rate is greater than 85%) | Activity level (growth inhibition rate) Leptochloa chinensis [4]: 5 (Level 5: the growth inhibition rate is greater than 85%) | Activity level (growth inhibition rate) Abutilon theophrasti [5]: 5 (Level 5: the growth inhibition rate is greater than 85%) | Activity level (growth inhibition rate) Setaria viridis [6]: 5 (Level 5: the growth inhibition rate is greater than 85%)

CC(Oc1nc(F)c(Cl)c(N)c1Cl)C(=O)Sc1ccncc1 (stereo not drawn) [Compound 116]
Activity level (growth inhibition rate) Digitaria sanguinalis [1]: 5 (Level 5: the growth inhibition rate is greater than 85%) | Activity level (growth inhibition rate) Monochoria Vaginalis [2]: 5 (Level 5: the growth inhibition rate is greater than 85%) | Activity level (growth inhibition rate) Galium spurium [3]: 5 (Level 5: the growth inhibition rate is greater than 85%) | Activity level (growth inhibition rate) Leptochloa chinensis [4]: 5 (Level 5: the growth inhibition rate is greater than 85%) | Activity level (growth inhibition rate) Abutilon theophrasti [5]: 5 (Level 5: the growth inhibition rate is greater than 85%) | Activity level (growth inhibition rate) Setaria viridis [6]: 5 (Level 5: the growth inhibition rate is greater than 85%)

Cc1cc(SC(=O)C(C)Oc2nc(F)c(Cl)c(N)c2Cl)n(C)n1 (stereo not drawn) [Compound 117]
Activity level (growth inhibition rate) Digitaria sanguinalis [1]: 5 (Level 5: the growth inhibition rate is greater than 85%) | Activity level (growth inhibition rate) Monochoria Vaginalis [2]: 5 (Level 5: the growth inhibition rate is greater than 85%) | Activity level (growth inhibition rate) Galium spurium [3]: 5 (Level 5: the growth inhibition rate is greater than 85%) | Activity level (growth inhibition rate) Leptochloa chinensis [4]: 5 (Level 5: the growth inhibition rate is greater than 85%) | Activity level (growth inhibition rate) Abutilon theophrasti [5]: 5 (Level 5: the growth inhibition rate is greater than 85%) | Activity level (growth inhibition rate) Setaria viridis [6]: 5 (Level 5: the growth inhibition rate is greater than 85%)

CC(Oc1nc(F)c(Cl)c(N)c1Cl)C(=O)Sc1ccn(C)n1 (stereo not drawn) [Compound 118]
Activity level (growth inhibition rate) Digitaria sanguinalis [1]: 5 (Level 5: the growth inhibition rate is greater than 85%) | Activity level (growth inhibition rate) Monochoria Vaginalis [2]: 5 (Level 5: the growth inhibition rate is greater than 85%) | Activity level (growth inhibition rate) Galium spurium [3]: 5 (Level 5: the growth inhibition rate is greater than 85%) | Activity level (growth inhibition rate) Leptochloa chinensis [4]: 5 (Level 5: the growth inhibition rate is greater than 85%) | Activity level (growth inhibition rate) Abutilon theophrasti [5]: 5 (Level 5: the growth inhibition rate is greater than 85%) | Activity level (growth inhibition rate) Setaria viridis [6]: 5 (Level 5: the growth inhibition rate is greater than 85%)

Cc1cn(C)nc1SC(=O)C(C)Oc1nc(F)c(Cl)c(N)c1Cl (stereo not drawn) [Compound 119]
Activity level (growth inhibition rate) Digitaria sanguinalis [1]: 5 (Level 5: the growth inhibition rate is greater than 85%) | Activity level (growth inhibition rate) Monochoria Vaginalis [2]: 5 (Level 5: the growth inhibition rate is greater than 85%) | Activity level (growth inhibition rate) Galium spurium [3]: 5 (Level 5: the growth inhibition rate is greater than 85%) | Activity level (growth inhibition rate) Leptochloa chinensis [4]: 5 (Level 5: the growth inhibition rate is greater than 85%) | Activity level (growth inhibition rate) Abutilon theophrasti [5]: 5 (Level 5: the growth inhibition rate is greater than 85%) | Activity level (growth inhibition rate) Setaria viridis [6]: 5 (Level 5: the growth inhibition rate is greater than 85%)

CC(Oc1nc(F)c(Cl)c(N)c1Cl)C(=O)Sc1ccoc1 (stereo not drawn) [Compound 120]
Activity level (growth inhibition rate) Digitaria sanguinalis [1]: 5 (Level 5: the growth inhibition rate is greater than 85%) | Activity level (growth inhibition rate) Monochoria Vaginalis [2]: 5 (Level 5: the growth inhibition rate is greater than 85%) | Activity level (growth inhibition rate) Galium spurium [3]: 5 (Level 5: the growth inhibition rate is greater than 85%) | Activity level (growth inhibition rate) Leptochloa chinensis [4]: 5 (Level 5: the growth inhibition rate is greater than 85%) | Activity level (growth inhibition rate) Abutilon theophrasti [5]: 5 (Level 5: the growth inhibition rate is greater than 85%) | Activity level (growth inhibition rate) Setaria viridis [6]: 5 (Level 5: the growth inhibition rate is greater than 85%)

CC(Oc1nc(F)c(Cl)c(N)c1Cl)C(=O)Sc1cccs1 (stereo not drawn) [Compound 121]
Activity level (growth inhibition rate) Digitaria sanguinalis [1]: 5 (Level 5: the growth inhibition rate is greater than 85%) | Activity level (growth inhibition rate) Monochoria Vaginalis [2]: 5 (Level 5: the growth inhibition rate is greater than 85%) | Activity level (growth inhibition rate) Galium spurium [3]: 5 (Level 5: the growth inhibition rate is greater than 85%) | Activity level (growth inhibition rate) Leptochloa chinensis [4]: 5 (Level 5: the growth inhibition rate is greater than 85%) | Activity level (growth inhibition rate) Abutilon theophrasti [5]: 5 (Level 5: the growth inhibition rate is greater than 85%) | Activity level (growth inhibition rate) Setaria viridis [6]: 5 (Level 5: the growth inhibition rate is greater than 85%)

CC(Oc1nc(F)c(Cl)c(N)c1Cl)C(=O)Sc1cccn1C (stereo not drawn) [Compound 122]
Activity level (growth inhibition rate) Digitaria sanguinalis [1]: 5 (Level 5: the growth inhibition rate is greater than 85%) | Activity level (growth inhibition rate) Monochoria Vaginalis [2]: 5 (Level 5: the growth inhibition rate is greater than 85%) | Activity level (growth inhibition rate) Galium spurium [3]: 5 (Level 5: the growth inhibition rate is greater than 85%) | Activity level (growth inhibition rate) Leptochloa chinensis [4]: 5 (Level 5: the growth inhibition rate is greater than 85%) | Activity level (growth inhibition rate) Abutilon theophrasti [5]: 5 (Level 5: the growth inhibition rate is greater than 85%) | Activity level (growth inhibition rate) Setaria viridis [6]: 5 (Level 5: the growth inhibition rate is greater than 85%)

CC(Oc1nc(F)c(Cl)c(N)c1Cl)C(=O)Sc1cn(C)cn1 (stereo not drawn) [Compound 123]
Activity level (growth inhibition rate) Digitaria sanguinalis [1]: 5 (Level 5: the growth inhibition rate is greater than 85%) | Activity level (growth inhibition rate) Monochoria Vaginalis [2]: 5 (Level 5: the growth inhibition rate is greater than 85%) | Activity level (growth inhibition rate) Galium spurium [3]: 5 (Level 5: the growth inhibition rate is greater than 85%) | Activity level (growth inhibition rate) Leptochloa chinensis [4]: 5 (Level 5: the growth inhibition rate is greater than 85%) | Activity level (growth inhibition rate) Abutilon theophrasti [5]: 5 (Level 5: the growth inhibition rate is greater than 85%) | Activity level (growth inhibition rate) Setaria viridis [6]: 5 (Level 5: the growth inhibition rate is greater than 85%)

CC(Oc1nc(F)c(Cl)c(N)c1Cl)C(=O)SC1CCC1 (stereo not drawn) [Compound 124]
Activity level (growth inhibition rate) Digitaria sanguinalis [1]: 5 (Level 5: the growth inhibition rate is greater than 85%) | Activity level (growth inhibition rate) Monochoria Vaginalis [2]: 5 (Level 5: the growth inhibition rate is greater than 85%) | Activity level (growth inhibition rate) Galium spurium [3]: 5 (Level 5: the growth inhibition rate is greater than 85%) | Activity level (growth inhibition rate) Leptochloa chinensis [4]: 5 (Level 5: the growth inhibition rate is greater than 85%) | Activity level (growth inhibition rate) Abutilon theophrasti [5]: 5 (Level 5: the growth inhibition rate is greater than 85%) | Activity level (growth inhibition rate) Setaria viridis [6]: 5 (Level 5: the growth inhibition rate is greater than 85%)
